Experiment [1] concerns Mycobacterium tuberculosis. Kind of experiment: Antimycobacterial activity against drug-resistant Mycobacterium tuberculosis. In kind it is functional.
The subject of experiment [2] is Mycobacterium tuberculosis. Kind of experiment: Antimycobacterial activity against extensively drug-resistant Mycobacterium tuberculosis. Type of experiment: functional.

≈ marks a conversion by molar mass, not a printed value.

What is called MIC99 is an inhibitory concentration at the 99% level, which refers to growth in some studies and to a panel of isolates in others. Read a low MIC99 as greater potency. The compound `Cc1cc(/C=C/c2ccc3cc(N(C)C)ccc3[n+]2C)c(C)n1-c1ccccc1.Cc1cc(/C=C/c2ccc3cc(N(C)C)ccc3[n+]2C)c(C)n1-c1ccccc1.O=C(O)c1cc2ccccc2c(Cc2c(O)c(C(=O)O)cc3ccccc23)c1O` came in with an MIC99 in experiment [1] of 1.55 µg/mL. Broadly, the MIC is the lowest concentration found to suppress growth. Higher therefore signals weaker potency. In turn, `CCNC(=O)Nc1nc2nc(-c3cnc(C(C)(C)O)nc3)c(F)c([C@H]3CCCO3)c2[nH]1` returned an MIC in experiment [1] of 0.08 µg/mL (≈ 0.186 µM). On the same count and under the same terms, under `O=[N+]([O-])c1cn2c(n1)OC[C@@H](OCc1ccc(OC(F)(F)F)cc1)C2` [PRETOMANID] stands 0.03 µg/mL (≈ 0.0835 µM). Compound `C[C@@H](O)[C@H]1C(=O)N2C(C(=O)O)=C(SC3CN(C4=NCCS4)C3)[C@H](C)[C@H]12` [TEBIPENEM] returned an MIC in experiment [2] of 0.3 µM (≈ 0.115 µg/mL).
